Source: publication PMC10518257 (Nature Cancer, 2023)

Test system: RET phosphorylation at Y905 and Y1062 and downstream effectors
Assay: Western blotting of serum-starved LUAD-0002AS1, ECLC5B and TT cells, 2 h
Type: cell-based, human
Details: 50 nM
Description: Serum-starved cells were treated with 5, 50 or 500 nM inhibitor for 2 h, and then protein phosphorylation levels were examined (Fig. 3a). […] We performed additional dose–response western blotting studies using lower inhibitor concentrations. Immunoblots were quantitated by densitometry, and the EC50 for phosphorylation inhibition was estimated (Extended Data Fig. 4). […] Quantitation of immunoblots is shown in Extended Data Fig. 4c,d.
Following treatment, whole-cell extracts were prepared and subjected to western blotting analysis. Representative immunoblots from two independent experiments are shown. GAPDH was used as a loading control. RSK, ribosomal protein S6 kinase; S6RP, S6 ribosomal protein. b,c, Cells were plated in 96-well plates and treated for 96 h with the inhibitors shown. The number of viable cells was assessed using alamarBlue. b, Viability curves for control HBEC cells (HBECp53-EV) and HBEC cells with the CCDC6-RET fusion (HBECp53-RET) are shown at the left. […] Data were analyzed by non-linear regression, and IC50 values were estimated by curve fitting. […]
See Supplementary Table 4 for a complete list of antibodies and dilutions used. […] The bands of the target proteins were detected with SuperSignal West Dura Extended Duration Substrate (Thermo Fisher Scientific) by the Amersham Imager 600 QC (Cytiva) or exposed to X-ray film and visualized using a Kodak X-ray developer.

COCc1ccc(NC(=O)c2c(C#CCN3CCOCC3)n(C3(C)CC3)c3ncnc(N)c23)cc1 [Vepafestinib, 4-amino-N-[4-(methoxymethyl)phenyl]-7-(1-methylcyclopropyl)-6-[3-(morpholin-4-yl)prop-1-yn-1-yl]-7H-pyrrolo[2,3-d]pyrimidine-5-carboxamide]
inhibition of phosphorylation of RET and downstream effectors: Near-complete inhibition
